Experimental findings from patent US12187702B2, “Sulfonamideurea compounds” (Inflazome Limited, priority 2018, dated 2025) are described below.

Experiment [1] addresses T1, NLRP3 (Homo sapiens, UniProt Q96P20). The experiment in a line: THP-1 cells pyroptosis assay (LPS + nigericin, resazurin read-out). The experiment is classed as cell-based. Details: Seed THP-1 cells (25,000 cells/well) containing 1.0 μg/ml LPS; host or cells: THP-1 cells. To be noted: THP-1 cells, 1 μg/ml LPS, 5 μM nigericin; NLRP3 inhibitory activity; read-out: THP IC50. As for the experimental part:
THP-1 cells (ATCC #TIB-202) were grown in RPMI containing L-glutamine (Gibco #11835) supplemented with 1 mM sodium pyruvate (Sigma #S8636) and penicillin (100 units/ml)/streptomycin (0.1 mg/ml) (Sigma #P4333) in 10% Fetal Bovine Serum (FBS) (Sigma #F0804). The cells were routinely passaged and grown to confluency (˜10^6 cells/ml). On the day of the experiment, THP-1 cells were harvested and resuspended into RPMI medium (without FBS). The cells were then counted and viability (>90%) checked by Trypan blue (Sigma #T8154). Appropriate dilutions were made to give a concentration of 625,000 cells/ml. To this diluted cell solution was added LPS (Sigma #L4524) to give a 1 μg/ml Final Assay Concentration (FAC). 40 μl of the final preparation was aliquoted into each well of a 96-well plate. The plate thus prepared was used for compound screening.
The following method step-by-step assay was followed for compound screening. • 1. Seed THP-1 cells (25,000 cells/well) containing 1.0 μg/ml LPS in 40 μl of RPMI medium (without FBS) in 96-well, black walled, clear bottom cell culture plates coated with poly-D-lysine (VWR #734-0317) • 2. Add 5 μl compound (8 points half-log dilution, with 10 μM top dose) or vehicle (DMSO 0.1% FAC) to the appropriate wells • 3. Incubate for 3 hrs at 37° C., 5% CO2 • 4. Add 5 μl nigericin (Sigma #N7143) (FAC 5 μM) to all wells • 5. Incubate for 1 hr at 37° C., 5% CO2 • 6. At the end of the incubation period, spin plates at 300×g for 3 mins and remove supernatant • 7. Then add 50 μl of resazurin (Sigma #R7017) (FAC 100 μM resazurin in RPMI medium without FBS) and incubate plates for a further 1-2 hrs at 37° C. and 5% CO2 • 8. Plates were read in an Envision reader at Ex 560 nm and Em 590 nm • 9. IC50 data is fitted to a non-linear regression equation (log inhibitor vs response-variable slope 4-parameters)
(In general: Alamar Blue is a resazurin reagent that responds to reducing activity.)

The target in experiment [2] is T1, NLRP3. The experiment in a line: Human whole blood IL-1β release assay (LPS + nigericin, AlphaLisa). In kind it is cell-based. Details: Plate out 80 μl of whole blood containing 1 μg/ml of LPS; from tissue; host or cells: human whole blood from healthy donors. To be noted: human whole blood, 1 μg/ml LPS, 10 μM nigericin; IL-1β release; read-out: HWB IC50. The method, then:
For systemic delivery, the ability to inhibit NLRP3 when the compounds are present within the bloodstream is of great importance. For this reason, the NLRP3 inhibitory activity of a number of compounds in human whole blood was investigated in accordance with the following protocol.
Human whole blood in Li-heparin tubes was obtained from healthy donors from a volunteer donor panel. • 1. Plate out 80 μl of whole blood containing 1 μg/ml of LPS in 96-well, clear bottom cell culture plate (Corning #3585) • 2. Add 10 μl compound (8 points half-log dilution with 10 μM top dose) or vehicle (DMSO 0.1% FAC) to the appropriate wells • 3. Incubate for 3 hrs at 37° C., 5% CO2 • 4. Add 10 μl nigericin (Sigma #N7143) (10 μM FAC) to all wells • 5. Incubate for 1 hr at 37° C., 5% CO2 • 6. At the end of the incubation period, spin plates at 300×g for 5 mins to pellet cells and remove 20 μl of supernatant and add to 96-well v-bottom plates for IL-1β analysis (note: these plates containing the supernatants can be stored at −80° C. to be analysed at a later date) • 7. IL-1β was measured according to the manufacturer protocol (Perkin Elmer-AlphaLisa IL-1 Kit AL220F-5000) • 8. IC50 data is fitted to a non-linear regression equation (log inhibitor vs response-variable slope 4-parameters)
On the technique in general: Alpha assays give light when donor and acceptor beads are brought close together.

Structures can show the parent of a compound that is named as a salt. Some results are limits rather than exact numbers.

By IC50 is commonly meant the concentration at which inhibition is half-maximal.

T1 sequence (Q96P20 whole entry): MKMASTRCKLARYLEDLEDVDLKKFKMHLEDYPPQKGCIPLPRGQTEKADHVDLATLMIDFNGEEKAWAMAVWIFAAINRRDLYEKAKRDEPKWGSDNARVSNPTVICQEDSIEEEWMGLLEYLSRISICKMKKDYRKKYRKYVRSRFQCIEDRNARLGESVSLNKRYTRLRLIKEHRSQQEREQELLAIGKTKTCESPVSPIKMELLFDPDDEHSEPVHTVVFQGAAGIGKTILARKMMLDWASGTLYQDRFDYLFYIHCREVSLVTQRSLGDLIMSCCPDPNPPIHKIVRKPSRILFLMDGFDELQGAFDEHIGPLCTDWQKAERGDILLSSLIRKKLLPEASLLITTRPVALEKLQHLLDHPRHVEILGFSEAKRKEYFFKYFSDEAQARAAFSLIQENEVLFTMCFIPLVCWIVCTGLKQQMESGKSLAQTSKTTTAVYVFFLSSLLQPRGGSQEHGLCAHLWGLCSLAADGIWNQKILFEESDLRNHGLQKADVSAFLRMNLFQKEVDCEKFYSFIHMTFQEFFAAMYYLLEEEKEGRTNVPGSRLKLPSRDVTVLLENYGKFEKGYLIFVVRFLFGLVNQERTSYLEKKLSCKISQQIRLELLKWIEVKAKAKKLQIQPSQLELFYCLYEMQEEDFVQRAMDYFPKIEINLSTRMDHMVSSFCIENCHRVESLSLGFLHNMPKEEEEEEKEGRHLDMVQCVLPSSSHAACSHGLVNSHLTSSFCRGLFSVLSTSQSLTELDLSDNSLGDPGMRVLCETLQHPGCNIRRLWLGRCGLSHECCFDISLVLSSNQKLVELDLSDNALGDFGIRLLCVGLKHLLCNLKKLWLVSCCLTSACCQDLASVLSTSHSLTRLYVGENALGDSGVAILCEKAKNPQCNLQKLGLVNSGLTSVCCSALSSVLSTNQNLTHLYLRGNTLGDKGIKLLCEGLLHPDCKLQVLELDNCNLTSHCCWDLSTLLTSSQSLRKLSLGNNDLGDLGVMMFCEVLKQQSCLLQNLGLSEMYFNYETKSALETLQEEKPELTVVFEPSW

With `CN1CCCC2CN(S(=O)(=O)NC(=O)Nc3c4c(cc5c3CCC5)CCC4)CC21` (stereo not shown) [Example 97, N-((1,2,3,5,6,7-Hexahydro-s-indacen-4-yl)carbamoyl)-1-methyloctahydro-6H-pyrrolo[3,4-b]pyridine-6-sulfonamide], the IC50 in experiment [1] and in experiment [2] was less than 500 nM in each case.

As to `CN(C)CCCNS(=O)(=O)NC(=O)Nc1c2c(cc3c1CCC3)CCC2` [Example 81, 3-(N-(3-(Dimethylamino)propyl)sulfamoyl)-1-(1,2,3,5,6,7-hexahydro-s-indacen-4-yl)urea, potassium salt], the IC50 in experiment [1] and in experiment [2] was less than 500 nM each time.

In the case of `CN1CC2CN(S(=O)(=O)NC(=O)Nc3c4c(cc5c3CCC5)CCC4)CC21` (stereo not shown) [Example 86, N-((1,2,3,5,6,7-Hexahydro-s-indacen-4-yl)carbamoyl)-6-methyl-3,6-diazabicyclo[3.2.0]heptane-3-sulfonamide], the IC50 in experiment [1] and in experiment [2] was less than 500 nM throughout.

In the case of `CC(C)N(CCN(C)C)S(=O)(=O)NC(=O)Nc1c2c(cc3c1CCC3)CCC2` [Example 83, 3-(N-(2-(Dimethylamino)ethyl)-N-isopropylsulfamoyl)-1-(1,2,3,5,6,7-hexahydro-s-indacen-4-yl)urea, potassium salt], the IC50 is less than 1000 nM in experiment [1] and less than 5000 nM in experiment [2].

Take `CCN(CC)C1CCN(S(=O)(=O)NC(=O)Nc2c3c(cc4c2CCC4)CCC3)C1` (stereo not shown) [Example 49, 3-(3-((Diethylamino)pyrrolidine)-1-sulfamoyl)-1-(1,2,3,5,6,7-hexahydro-s-indacen-4-yl)urea, potassium salt]: the IC50 in experiment [1] and in experiment [2] was less than 500 nM each time.

Take `CC(C)n1cc(NS(=O)(=O)NC(=O)Nc2c3c(cc4c2CCC4)CCC3)cn1` [Example 65, 3-(N-(1-Isopropyl-1H-pyrazol-4-yl)sulfamoyl)-1-(1,2,3,5,6,7-hexahydro-s-indacen-4-yl)urea, potassium salt]: the IC50 in experiment [1] is less than 500 nM; in experiment [2], less than 5000 nM.

Turning to `CN(C)CC1CCN(S(=O)(=O)NC(=O)Nc2c3c(cc4c2CCC4)CCC3)C1` (stereo not shown) [Example 68, potassium salt], the figures for the IC50 in experiment [1] and in experiment [2] were less than 500 nM and less than 1000 nM, respectively.

`CC(C)NCCNS(=O)(=O)NC(=O)Nc1c2c(cc3c1CCC3)CCC2` [Example 26]: the IC50 in experiment [1] is less than 500 nM; in experiment [2] it was less than 1000 nM.

Regarding `CN1C[C@@H]2CN(S(=O)(=O)NC(=O)Nc3c4c(cc5c3CCC5)CCC4)C[C@@H]21` [Example 93, (1R,5R)—N-((1,2,3,5,6,7-Hexahydro-s-indacen-4-yl)carbamoyl)-6-methyl-3,6-diazabicyclo[3.2.0]heptane-3-sulfonamide, potassium salt], the IC50 in experiment [1] and in experiment [2] was less than 500 nM each time.

For `CC(C)c1cc(F)cc(-c2ccncc2)c1NC(=O)NS(=O)(=O)N(C)C1CCN(C)C1` (stereo not shown) [Example 108], the concentration for half-maximal inhibition (IC50) in experiment [1] and in experiment [2] was less than 500 nM throughout.

Regarding `CC(C)NCCN(C(C)C)S(=O)(=O)NC(=O)Nc1c2c(cc3c1CCC3)CCC2` [Example 28, 3-(N-Isopropyl-N-(2-(isopropylamino)ethyl))sulfamoyl)-1-(1,2,3,5,6,7-hexahydro-s-indacen-4-yl)urea, potassium salt], the IC50 in experiment [1] and in experiment [2] was less than 500 nM throughout.

Regarding `CN1CCC2CCN(S(=O)(=O)NC(=O)Nc3c4c(cc5c3CCC5)CCC4)CC21` (stereo not shown) [Example 98, N-((1,2,3,5,6,7-Hexahydro-s-indacen-4-yl)carbamoyl)-1-methyloctahydro-6H-pyrrolo[2,3-c]pyridine-6-sulfonamide], the IC50 in experiment [1] and in experiment [2] was less than 5000 nM throughout.

Turning to `CN1CCCC1CNS(=O)(=O)NC(=O)Nc1c2c(cc3c1CCC3)CCC2` (stereo not shown) [Example 25, 3-(N-((1-Methylpyrrolidin-2-yl)methyl))sulfamoyl)-1-(1,2,3,5,6,7-hexahydro-s-indacen-4-yl)urea, potassium salt], the IC50 in experiment [1] is less than 1000 nM; in experiment [2], less than 500 nM.

In the case of `CN1C2CCC1CN(S(=O)(=O)NC(=O)Nc1c3c(cc4c1CCC4)CCC3)C2` [Example 14, N-((1,2,3,5,6,7-Hexahydro-s-indacen-4-yl)carbamoyl)-8-methyl-3,8-diazabicyclo[3.2.1]octane-3-sulfonamide, potassium salt], the concentration for half-maximal inhibition (IC50) in experiment [1] and in experiment [2] was less than 500 nM throughout.

In the case of `CCN1CCC1CNS(=O)(=O)NC(=O)Nc1c2c(cc3c1CCC3)CCC2` (stereo not shown) [Example 47, 3-(N-((1-Ethylazetidin-2-yl)methyl)sulfamoyl)-1-(1,2,3,5,6,7-hexahydro-s-indacen-4-yl)urea, potassium salt], the IC50 in experiment [1] and in experiment [2] was less than 1000 nM throughout.

Consider `O=C(Nc1c2c(cc3c1CCC3)CCC2)NS(=O)(=O)NCCN1CCC1` [Example 35, 3-(N-(2-(Azetidin-1-yl)ethyl)sulfamoyl)-1-(1,2,3,5,6,7-hexahydro-s-indacen-4-yl)urea, potassium salt], for which the IC50 in experiment [1] was less than 5000 nM; in experiment [2], less than 1000 nM.

Take `CCN(CC)CCNS(=O)(=O)NC(=O)Nc1c2c(cc3c1CCC3)CCC2` [Example 40, 3-(N-(2-(Diethylamino)ethyl)sulfamoyl))-1-(1,2,3,5,6,7-hexahydro-s-indacen-4-yl)urea, potassium salt]: the IC50 in experiment [1] was less than 1000 nM; in experiment [2], less than 500 nM.

Turning to `CN1CC[C@@H](NS(=O)(=O)NC(=O)Nc2c3c(cc4c2CCC4)CCC3)C1` [Example 89, 3-((R)—N-(1-Methylpyrrolidin-3-yl)sulfamoyl)-1-(1,2,3,5,6,7-hexahydro-s-indacen-4-yl)urea, potassium salt], the IC50 in experiment [1] and in experiment [2] was less than 500 nM throughout.

On to `CC(CNS(=O)(=O)NC(=O)Nc1c2c(cc3c1CCC3)CCC2)N(C)C` (stereo not shown) [Example 30, 3-(N-(2-(Dimethylamino)propyl))sulfamoyl)-1-(1,2,3,5,6,7-hexahydro-s-indacen-4-yl)urea, potassium salt], for which the IC50 was less than 1000 nM in experiment [1] and less than 500 nM in experiment [2].

`CCN(CCN(C)C)S(=O)(=O)NC(=O)Nc1c2c(cc3c1CCC3)CCC2` [Example 39, 3-(N-(2-(Dimethylamino)ethyl)-N-ethylsulfamoyl))-1-(1,2,3,5,6,7-hexahydro-s-indacen-4-yl)urea, potassium salt]: the IC50 is less than 500 nM in experiment [1] and less than 1000 nM in experiment [2].

For `CCN1C2CCC1CN(S(=O)(=O)NC(=O)Nc1c3c(cc4c1CCC4)CCC3)C2` [Example 61, 8-Ethyl-N-((1,2,3,5,6,7-hexahydro-s-indacen-4-yl)carbamoyl)-3,8-diazabicyclo[3.2.1]octane-3-sulfonamide, potassium salt], the IC50 in experiment [1] and in experiment [2] was less than 500 nM in each case.

`CCN1CC2CN(S(=O)(=O)NC(=O)Nc3c4c(cc5c3CCC5)CCC4)CC21` (stereo not shown) [Example 85, 6-Ethyl-N-((1,2,3,5,6,7-hexahydro-s-indacen-4-yl)carbamoyl)-3,6-diazabicyclo[3.2.0]heptane-3-sulfonamide]: the IC50 in experiment [1] and in experiment [2] was less than 500 nM throughout.

As for `CC(C)N1C2CCC1CN(S(=O)(=O)NC(=O)Nc1c3c(cc4c1CCC4)CCC3)C2` [Example 29, N-((1,2,3,5,6,7-Hexahydro-s-indacen-4-yl)carbamoyl)-8-isopropyl-3,8-diazabicyclo[3.2.1]octane-3-sulfonamide, potassium salt], the IC50 in experiment [1] and in experiment [2] was less than 500 nM each time.
